In patent publication US4131681A, “Antiallergic method” (Fujisawa Pharmaceutical Co., Ltd., priority 1977, dated 1978):
Where a name gives a salt, the structure may show the parent alone.

Legend:
[1] = test system: passive cutaneous anaphylaxis (P.C.A.) reaction; experiment: Antagonism to passive cutaneous anaphylaxis (P.C.A.) in guinea-pig; format: in vivo, guinea-pig (male Hartley); details: for ED50: Cavia porcellus
Procedure: (b) Guinea-pig antiserum against egg albumin
Five mg of egg albumin emulsified in 0.5 ml of physiological saline and 0.5 ml of Freund's incomplete adjuvant was used as the antigen.
The amulsion was given subcutaneously in a single dose of 1 ml divided equally (0.25 ml) to the four foot pads of male Hartley strain guinea pigs, each weighing 250 to 300 g. Starting two weeks after dosing with the aforementioned emulsion, 0.1% egg albumin emulsified in physiological saline was given subcutaneously in equally divided (0.1 ml) doses of 0.4 ml once a week for 4 weeks to four sites on the backs of the test animals. Blood samples were collected from the carotid artery one week after the last injection, and centrifuged at 3000 r.p.m. at room temperature for 15 minutes. The antisera thus obtained were stored at -20° C.
(3) Antagonism to passive cutaneous anaphylaxis (P.C.A) in guinea-pig
Ten male Hartley strain guinea-pigs, weighing 300-350 g, were used for each dose. The animals were sensitized with 0.1 ml of the guinea-pig antiserum against egg albumin injected intracutaneously on the depilated backs of the animals. Four hours after injection of the antiserum, 1 ml of mixture of egg albumin […] and Evan's blue […] in physiological saline was injected intravenously. Thirty minutes after the injection of the antigen, the animals were sacrificed and the skin was removed. Each test compound was given orally 2 hours and intravenously 5 minutes before administration of the antigen. Each sensitized area of the skin was treated substantially in the same manner as that of the above mentioned test (2) to calculate ED50 value.

[2] = test system: passive cutaneous anaphylaxis (P.C.A.) reaction; experiment: Antagonism to passive cutaneous anaphylaxis (P.C.A.) in rat; format: in vivo, rat (male Sprague-Dawley-JCL); details: for ED50: Rattus norvegicus
Procedure: (1) Preparation of antiserum
(a) Rat reaginic antiserum against egg albumin
One mg of egg albumin emulsified in 0.5 ml of B. pertussisdiphtheria mixed vaccine (Tanabe Seiyaku Company Ltd.) and 0.5 ml of Freund's incomplete adjuvant (Difco) was used as the antigen. The emulsion was given subcutaneously in a single dose of 1 ml divided equally (0.25 ml) to the four foot pads of male Sprague-Dawley JCL strain rats aged 6 weeks, each weighing 170-220 g. Blood samples were collected from the femoral artery 12 days after injection, and centifuged at 3000 r.p.m. at 4° C. for 15 minutes. The antisera thus obtained were stored at -20° C.
(2) antagonism to passive cutaneous anaphylaxis (P.C.A.) in rat
Ten male Sprague-Dawley-JCL strain rats, weighing 290-310 g, were used for each dose. The rat reaginic antiserum against egg albumin was used at a dilution 1:4. The animals were sensitized with 0.1 ml of the antiserum injected intracutaneously on the depilated backs of the rats. Fortyeight hours after the injection of the antiserum, 1 ml of mixture of egg albumin 5 mg and Evans' blue 5 mg in physiological saline 1 ml was injected intravenously. Thirty minutes after the injection of the antigen, animals were sacrificed and the skin was removed. To each sensitized area of the skin was added 10 ml of a 4:1 mixture of acetone and 2% solution of RBS-25 (Marumoto Industrial Co., Ltd.) to extract the dye and the mixture was allowed to stand for 16 hours, during of which the mixture was twice shaken for 30 minutes at 5th hour and 16th hour. It was further centrifuged at 2,000 r.p.m. for 15 minutes and the quantity of the dye in the supernatant solution was determined by colorimetry at […]. Each test compound was given orally 2 hours and intravenously 5 minutes before administration of the antigen. The inhibitory effect of each test compound was determined from the dye amounts measured in comparison with the control group and the treated group and the ED50 value was calculated according to Litchfield-Wilcoxon method.

[3] = test system: Bradykinin-induced bronchoconstruction; experiment: Antagonism to Bradykinin-induced bronchoconstruction in guinea-pigs; format: in vivo, guinea-pig (male Hartley); details: for Inhibitory effect of Bradykinin-induced bronchoconstruction in guinea-pig: 30 seconds before Bradykinin; for ED50: Cavia porcellus, iv, 30 seconds before Bradykinin 16 mg/kg i.v., Litchfield-Wilcoxon
Procedure: (5) Antagonism to Bradykinin-induced bronchoconstruction in guinea-pigs
Ten male Hartley strain guinea-pigs were used for each dose. The animals were immobilized with an intraperitoneal dose of 100 mg/kg of gallamine. The trachea was cannulated and the lungs were dilated with air by a respiration pump at the rate of 3 ml/time and 60.2 times/minute. Bradykinin 16 mg/kg was given intravenously and bronchoconstruction induced thereby was measured by Tanbule Strain gauge according to Konzett-Rossler method. The inhibitory effect against bronchoconstruction was determined in comparison with the control group and the treated group, and the ED50 value was measured according to Litchfield-Wilcoxon method. Each test compound was given intravenously 30 seconds before administration of the Bradykinin.

Acute toxicity in rat = details: in vivo, 7 days
Procedure: (§1) (6) Acute toxicity in mouse and rat
(§2) Each ten male and female ICR-JCL strain mice and Sprague-Dawley-JCL strain rats were used for each dose.
(§3) Each test compound was given to animals in a form of suspension in 0.5% methyl cellose intraperitoneally, subcutaneously and orally. After administration, the incidence of the death was recorded for successive seven days. LD50 values were calculated by the method of Litchfield-Wilcoxon method.

Acute toxicity in mouse = details: in vivo, 7 days
Procedure: as §1, §2, §3

anaphylactic asthma = experiment: Antagonism to anaphylactic asthma in guinea-pigs; format: in vivo, guinea-pig (male Hartley); details: for Inhibitory effect of anaphylactic asthma in guinea-pig: survival more than 2 hours after antigen spray
[4] = iv, 5 min, i.v., 5 minutes before antigen
[5] = i.v., 4 mg/kg, 5 minutes before antigen
[6] = i.v., 16 mg/kg, 5 minutes before antigen
[7] = i.v., 64 mg/kg, 5 minutes before antigen
[8] = p.o., 32 mg/kg, 2 hours before antigen
[9] = p.o., 125 mg/kg, 2 hours before antigen
[10] = p.o., 500 mg/kg, 2 hours before antigen
[11] = iv, 5 min, i.v., 5 minutes before antigen, Litchfield-Wilcoxon

Row | Compound | ED50 [1, 4] [mg/kg] | ED50 ([1]; po, 2 hours before antigen) [mg/kg] | Inhibitory effect of P.C.A. reaction in guinea-pig [1, 5] [%] | Inhibitory effect of P.C.A. reaction in guinea-pig [1, 6] [%] | Inhibitory effect of P.C.A. reaction in guinea-pig [1, 7] [%] | Inhibitory effect of P.C.A. reaction in guinea-pig [1, 8] [%] | Inhibitory effect of P.C.A. reaction in guinea-pig [1, 9] [%] | Inhibitory effect of P.C.A. reaction in guinea-pig [1, 10] [%] | ED50 [2, 11] [mg/kg] | Inhibitory effect of P.C.A. reaction in rat [2, 5] [%] | Inhibitory effect of P.C.A. reaction in rat [2, 6] [%] | Inhibitory effect of P.C.A. reaction in rat [2, 7] [%] | Inhibitory effect of P.C.A. reaction in rat [2, 8] [%] | Inhibitory effect of P.C.A. reaction in rat [2, 10] [%] | Inhibitory effect of Bradykinin-induced bronchoconstruction in guinea-pig ([3]; 1 mg/kg i.v.) [%] | Inhibitory effect of Bradykinin-induced bronchoconstruction in guinea-pig ([3]; 4 mg/kg i.v.) [%] | ED50 [3] [mg/kg] | LD50 at 168 h (Acute toxicity in rat; po, female) [mg/kg] | LD50 at 168 h (Acute toxicity in mouse; po, female) [mg/kg] | LD50 at 168 h (Acute toxicity in mouse; po, male) [mg/kg] | further results
1 | O=C(Cn1c(=O)sc2ccc(Cl)cc21)N1CCC(O)CC1 [Compound A, 3-(4-hydroxypiperidino)carbonylmethyl-5-chloro-2-benzothiazolinone] | 29.1 | 202 | 15.5 | 32.9 | 68.9 | 33.5 | 31.7 | 67.4 | 56.6 | 22.6 | 41.5 | 49.1 | 20.8 | 62.3 | 89 | 91 | 0.278 | > 8000 | > 8000 | > 8000 | ED50 ([2]; po, 2 hours before antigen, Litchfield-Wilcoxon): 348 mg/kg; Inhibitory effect of P.C.A. reaction in rat [2, 9]: 20.8%; Inhibitory effect of Bradykinin-induced bronchoconstruction in guinea-pig ([3]; 0.064 mg/kg i.v.): 12%; Inhibitory effect of Bradykinin-induced bronchoconstruction in guinea-pig ([3]; 0.25 mg/kg i.v.): 50%; LD50 at 168 h (Acute toxicity in rat; ip, female): 5800 mg/kg; LD50 at 168 h (Acute toxicity in rat; ip, male): 7110 mg/kg; LD50 at 168 h (Acute toxicity in rat; po, male): > 8000 mg/kg; LD50 at 168 h (Acute toxicity in rat; sc, female): > 8000 mg/kg; LD50 at 168 h (Acute toxicity in rat; sc, male): > 8000 mg/kg; LD50 at 168 h (Acute toxicity in mouse; ip, female): > 8000 mg/kg; LD50 at 168 h (Acute toxicity in mouse; ip, male): > 8000 mg/kg; LD50 at 168 h (Acute toxicity in mouse; sc, female): > 8000 mg/kg; LD50 at 168 h (Acute toxicity in mouse; sc, male): > 8000 mg/kg; Inhibitory effect of anaphylactic asthma in guinea-pig (anaphylactic asthma; 4 mg/kg i.v.): 0%; Inhibitory effect of anaphylactic asthma in guinea-pig (anaphylactic asthma; 16 mg/kg i.v.): 90%; Inhibitory effect of anaphylactic asthma in guinea-pig (anaphylactic asthma; 64 mg/kg i.v.): 100%; ED50 (anaphylactic asthma; Cavia porcellus, iv, 2 h, i.v., anaphylactic asthma, Litchfield-Wilcoxon, read-out: ED50 (dose required for 50% protection from death)): ~8.5 mg/kg
2 | O=C(O)c1cc(=O)c2c(OCC(O)COc3cccc4oc(C(=O)O)cc(=O)c34)cccc2o1 [Compound C, disodium chromoglycate] | – | – | 11.4 | 18.4 | -2.2 | -25.4 | 24.6 | – | 73.2 | 24.1 | 55.6 | 41.4 | -16.1 | 9.4 | 12 | 28 | > 16 | > 11000 | > 11000 | > 11000 | ED50 (P.C.A. reaction in rat) ([2]; p.o., 2 hours before antigen, Litchfield-Wilcoxon): No effect; Inhibitory effect of Bradykinin-induced bronchoconstruction in guinea-pig ([3]; 16 mg/kg i.v.): 24%; LD50 at 168 h (Acute toxicity in rat; po, male): > 11000 mg/kg; Inhibitory effect of anaphylactic asthma in guinea-pig (anaphylactic asthma; 4 mg/kg i.v.): 0%; Inhibitory effect of anaphylactic asthma in guinea-pig (anaphylactic asthma; 16 mg/kg i.v.): 0%; Inhibitory effect of anaphylactic asthma in guinea-pig (anaphylactic asthma; 64 mg/kg i.v.): 10%; ED50 (dose required for 50% protection from death) (anaphylactic asthma; i.v., anaphylactic asthma, Litchfield-Wilcoxon): No effect
3 | O=C(Cn1c(=O)sc2ccc(Cl)cc21)N1CCN(CCO)CC1 [Compound D, 3-[4-(2-hydroxyethyl)-1-piperazinylcarbonylmethyl]-5-chloro-2-benzothiazolinone hydrochloride] | 46.8 | 594 | 7.4 | 19.4 | 60.6 | -8.2 | 6.1 | 43.4 | – | – | – | – | – | – | 44 | 94 | 0.813 | 3800 | 622 | 564 | Inhibitory effect of Bradykinin-induced bronchoconstruction in guinea-pig ([3]; 0.064 mg/kg i.v.): -14%; Inhibitory effect of Bradykinin-induced bronchoconstruction in guinea-pig ([3]; 0.25 mg/kg i.v.): 27%; Inhibitory effect of Bradykinin-induced bronchoconstruction in guinea-pig ([3]; 16 mg/kg i.v.): 99%
